According to US6600072B2, “Substituted 1-naphthoylguanidines, process for their preparation, their use as a medicament or diagnostic , and medicament containing them” (Aventis Pharma Deutschland GmbH, priority 1996, dated 2003):
Structures can show the parent of a compound that is named as a salt.

Molecular target: T1, Na^+/H^+ exchanger of rabbit erythrocytes (Oryctolagus cuniculus, UniProt P23791)
T1 construct: determine the Na^+ influx into the erythrocytes via Na^+/H^+ exchange by flame photometry; endogenous in cells; host or cells: erythrocytes in whole blood of cholesterol-fed White New Zealand rabbits
T1 sequence (P23791 whole entry): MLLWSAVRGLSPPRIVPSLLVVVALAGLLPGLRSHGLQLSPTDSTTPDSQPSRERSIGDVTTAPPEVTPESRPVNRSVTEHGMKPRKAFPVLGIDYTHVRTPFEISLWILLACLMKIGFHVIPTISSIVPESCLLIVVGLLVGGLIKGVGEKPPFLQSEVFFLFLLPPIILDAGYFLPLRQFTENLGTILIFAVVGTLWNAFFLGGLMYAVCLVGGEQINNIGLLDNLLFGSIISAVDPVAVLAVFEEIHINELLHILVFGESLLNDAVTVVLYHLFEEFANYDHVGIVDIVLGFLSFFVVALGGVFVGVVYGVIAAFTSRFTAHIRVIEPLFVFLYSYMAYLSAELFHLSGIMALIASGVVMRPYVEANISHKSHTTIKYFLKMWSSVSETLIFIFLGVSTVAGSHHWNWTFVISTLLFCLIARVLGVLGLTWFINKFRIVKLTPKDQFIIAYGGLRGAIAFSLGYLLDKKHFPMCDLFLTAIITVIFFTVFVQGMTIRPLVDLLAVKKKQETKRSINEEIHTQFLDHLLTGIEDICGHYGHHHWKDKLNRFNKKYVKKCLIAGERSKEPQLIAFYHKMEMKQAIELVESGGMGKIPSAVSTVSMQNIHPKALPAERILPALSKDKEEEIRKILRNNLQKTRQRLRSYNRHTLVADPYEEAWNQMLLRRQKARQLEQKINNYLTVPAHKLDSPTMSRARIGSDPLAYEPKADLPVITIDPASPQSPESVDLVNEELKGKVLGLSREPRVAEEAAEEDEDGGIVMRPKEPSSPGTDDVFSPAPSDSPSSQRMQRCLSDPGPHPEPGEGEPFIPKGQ
Assay: Inhibition of the Na+/H+ exchanger of rabbit erythrocytes (amiloride-sensitive sodium influx, flame photometry)
Format: cell-based
Settings: pH 7.4, 37° C., hyperosmolar salt-sucrose medium
From the text: Inhibition of the Na^+/H^+ exchanger of rabbit erythrocytes:
White New Zealand rabbits (Ivanovas) received a standard diet containing 2% cholesterol for six weeks in order to activate Na^+/H^+ exchange and thus to be able to determine the Na^+ influx into the erythrocytes via Na^+/H^+ exchange by flame photometry. The blood was taken from the auricular arteries and rendered uncoagulable by means of 25 lU/ml of potassium heparin. A part of each sample was used for the duplicate determination of the hematocrit by centrifugation. Aliquots of 100 μl in each case were used to measure the Na^+ starting content of the erythrocytes.
In order to determine the amiloride-sensitive sodium influx, 100 μl of each blood sample were incubated at pH 7.4 and 37° C. in 5 ml in each case of a hyperosmolar salt-sucrose medium (mmol/l: 140 NaCl, 3 KCl, 150 sucrose, 0.1 ouabain, 20 trishydroxymethylaminomethane). The erythrocytes were then washed three times with ice-cold MgCl2-ouabain solution (mmol/l: 112 MgCl2, 0.1 ouabain) and hemolyzed in 2.0 ml of distilled water. The intracellular sodium content was determined by flame photometry.
The net Na^+ influx was calculated from the difference between sodium starting values and the sodium content of the erythrocytes after incubation. The amiloride-inhibitable sodium influx ensued from the difference in the sodium content of the erythrocytes after incubation with and without amiloride 3×10^−4 mol/l. The sodium influx was also determined in this manner in the case of the compounds according to the invention.

Row | Compound | IC50 [µM]
1 | CC(C)Oc1ccc2ccccc2c1C(=O)NC(=N)N [Example 18, 2-Isopropyloxy-1-naphthoylguanidine Hydrochloride] | 2
2 | COc1ccc2ccccc2c1C(=O)NC(=N)N [Example 8, 2-Methoxy-1-naphthoylguanidine Hydrochloride] | 0.5
3 | Cl.NC(N)=NC(=O)c1ccc(F)c2ccccc12 [Example 1, 4-Fluoro-1-naphthoylguanidine Hydrochloride] | 1 to 2
4 | N=C(N)NC(=O)c1cccc2ccccc12 [Example 6, 1-Naphthoylguanidine Hydrochloride] | 10
5 | CCCCOc1ccc2ccccc2c1C(=O)NC(=N)N [Example 14, 2-Butyloxy-1-naphthoylguanidine Hydrochloride] | 1

Tested on: not given
Assay: not given
Settings: not given

Row | Compound | melting point
6 | NC(N)=NC(=O)c1ccc(C(=O)N=C(N)N)c2ccccc12 [Example 23, Naphthaline-1,4-dicarboxylic Acid Diguanidide] | 270 °C (dec.)
7 | COc1ccc2c(C(=O)N=C(N)N)cccc2c1C(F)(F)F (as salt: hydrochloride) [Example 3, 6-Methoxy-5-trifluoromethyl-1-naphthoyl-guanidine Hydrochloride] | > 260 °C

More lines, now with the values ahead:

Row | melting point | Compound
8 | 205 to 210 °C | NC(N)=NC(=O)c1c(OCc2ccc(CN3CCCCC3)cc2)ccc2ccccc12 [Example 10, 2-[4-(1-Piperidinomethyl)benzyloxy]-1-naphthoylguanidine]
9 | 245 °C | Cl.NC(N)=NC(=O)c1ccc(F)c2ccccc12 [Example 1, 4-Fluoro-1-naphthoylguanidine Hydrochloride]
10 | 198 to 202 °C | NC(N)=NC(=O)c1c(OCc2ccc(Br)cc2)ccc2ccccc12 (as salt: hydrochloride) (hydrate or solvate) [Example 9, 2-(4-Bromobenzyloxy)naphthoylguanidine Hydrochloride Hemihydrate]
11 | 235 to 236 °C | COc1ccc2c(C(=O)N=C(N)N)cccc2c1 (as salt: hydrochloride) [Example 4, 6-Methoxy-1-naphthoylguanidine Hydrochloride]

Tested on: rat hearts
Assay: not given
Settings: isolated rat hearts; cited from earlier work

Row | Compound | suppression of artificially induced ventricular fibrillation | potency relative to amiloride in the ventricular fibrillation model
12 | N=C(N)NC(=O)c1nc(Cl)c(N)nc1N [amiloride, Amiloride] | suppressed completely | –
13 | CCN(c1nc(N)c(C(=O)NC(=N)N)nc1Cl)C(C)C [ethylisopropylamiloride, Ethylisopropylamiloride] | – | even more potent than amiloride
